Laboratory results from patent publication US4540708A, “Sulfenyl carbamate derivatives and insecticidal compositions containing the same” (priority 1982, dated 1985).
Read-outs that look alike come from different tables or passages of the source.

Assays:
[1] = system: warm-blooded animals; details: known compounds, background; cited from earlier work
[2] = system: mites, eelworms and other agricultural and forestry noxious insects and household noxious insects; details: known compounds, background; cited from earlier work
[3] = system: tobacco cutworm (Spodoptera litura); assay: Test Example 1: mortality of third-instar larvae of tobacco cutworm on cabbage, 3 days; format: in vivo; details: 72 h
Procedure: Ten third-instar larvae of tobacco cutworm (Spodoptera litura) were placed on a cabbage (one-month-old seedling) planted in a pot, and a 50% emulsion of the compound to be tested was diluted to a specified concentration and applied to the leaves of the plant to fully wet them. The test compound of each specified concentration was tested on two pots.

[4] = system: green rice leafhopper (Nephotettix cincticeps); assay: Test Example 2: mortality of female adults of green rice leafhopper on paddy rice, 3 days; format: in vivo; details: 72 h
Procedure: An emulsion of specified concentration was prepared from a 50% wettable powder of the compound to be tested and applied to the leaves of paddy rice (one-month-old seedlings) planted in a pot to fully wet the leaves. After the emulsion had been dried, the pot was covered with a net cage, into which 10 female adults of green rice leafhopper (Nephotettix cincticeps) were released. The compound of each specified concentration was tested on two pots.

[5] = Test Example 4: acute toxicity by oral administration in male mice (Litchfield-Wilcoxon); parameters: unit not given here; details: mouse, in vivo, mortality on the seventh day
Procedure: Compounds of this invention were tested on male mice for acute toxicity by oral administration.

[6] = 125 ppm active ingredient, 3 days, read-out: Mortality
[7] = 250 ppm active ingredient, 3 days, read-out: Mortality
[8] = 500 ppm active ingredient, 3 days, read-out: Mortality
[9] = 1000 ppm active ingredient, 3 days, read-out: Mortality
[10] = 200 ppm active ingredient, 3 days, read-out: Mortality
[11] = 400 ppm active ingredient, 3 days, read-out: Mortality
[12] = 800 ppm active ingredient, 3 days, read-out: Mortality

| Structure (SMILES) | toxicity to warm-blooded animals (in words) [1] | insecticidal activity (in words) [2] | mortality at 125 ppm [3, 6] | mortality at 250 ppm [3, 7] | mortality at 125 ppm [3] | mortality at 250 ppm [3] | mortality at 500 ppm [3] | mortality at 1000 ppm [3] | mortality at 200 ppm [4] | mortality at 400 ppm [4] | mortality at 800 ppm [4] | LD50 at 168 h [5] | mortality at 500 ppm [3, 8] | mortality at 1000 ppm [3, 9] | mortality at 200 ppm [4, 10] | mortality at 400 ppm [4, 11] | mortality at 800 ppm [4, 12] |
| --- | --- | --- | --- | --- | --- | --- | --- | --- | --- | --- | --- | --- | --- | --- | --- | --- | --- |
| CNC(=O)Oc1cccc2c1OC(C)(C)C2 [Control 1, 2,3dihydro-2,2-dimethylbenzofuran-7-yl-N--methylcarbamate] | high toxicity to warm-blooded animals | high insecticidal activity | – | – | – | – | – | – | – | – | – | – | – | – | – | – | – |
| CNC(=O)ON=C(C)SC [Control*, S--methyl N--[(methylcarbamoyl)oxy]thioacetimidate] | high toxicity to warm-blooded animals | – | – | – | – | – | – | – | – | – | – | – | – | – | – | – | – |
| CNC(=O)ON=C(C)SC [Control*] | – | – | 85% | 90% | – | – | – | – | – | – | – | – | – | – | – | – | – |
| COCCCN(CCC(=O)OC)SN(C)C(=O)Oc1cccc2c1OC(C)(C)C2 [Example 1, 2,3-dihydro-2,2-dimethylbenzofuran-7-yl N-[N-(3-methoxypropyl)-N-methoxycarbonylethylaminosulfenyl]N-methyl carbamate] | – | – | – | – | 40% | 65% | 80% | 90% | 70% | 90% | 100% | – | – | – | – | – | – |
| COCCN(CCC#N)SN(C)C(=O)Oc1cccc2c1OC(C)(C)C2 [Example 2, 2,3-dihydro-2,2-dimethylbenzofuran-7-yl N-[N-(2-methoxyethyl)-N-cyanoethylaminosulfenyl]N-methyl-carbamate] | – | – | – | – | 40% | 55% | 70% | 85% | 65% | 85% | 100% | 98000 | – | – | – | – | – |
| COCCN(CCC(=O)OC)SN(C)C(=O)ON=C(C)SC [Example 3, S-methyl N-[{N-methyl-N-(N-methoxyethyl-N-methoxycarbonylethylaminosulfenyl)carbamoyl}oxy]-thioacetimidate] | – | – | 55% | 70% | – | – | – | – | – | – | – | – | 85% | 90% | 65% | 90% | 100% |
| COCCN(CC(=O)OC)SN(C)C(=O)Oc1cccc2c1OC(C)(C)C2 [Example 4] | – | – | – | – | 45% | 65% | 80% | 90% | 75% | 95% | 100% | 90000 | – | – | – | – | – |
| COCCN(CC#N)SN(C)C(=O)Oc1cccc2c1OC(C)(C)C2 [Example 5] | – | – | – | – | 50% | 70% | 80% | 90% | 70% | 90% | 100% | 68000 | – | – | – | – | – |
| CCOC(=O)CN(CCCOC)SN(C)C(=O)Oc1cccc2c1OC(C)(C)C2 [Example 6] | – | – | – | – | 55% | 70% | 80% | 90% | 70% | 95% | 100% | – | – | – | – | – | – |
| COC(=O)CCN(CCCOc1ccccc1)SN(C)C(=O)Oc1cccc2c1OC(C)(C)C2 [Example 7] | – | – | – | – | 40% | 60% | 75% | 85% | 60% | 80% | 100% | – | – | – | – | – | – |
| CCOCCN(CCC(=O)OC)SN(C)C(=O)Oc1cccc2c1OC(C)(C)C2 [Example 8] | – | – | – | – | 40% | 60% | 80% | 90% | 75% | 90% | 100% | – | – | – | – | – | – |
| COC(=O)CCN(CCOC(C)C)SN(C)C(=O)Oc1cccc2c1OC(C)(C)C2 [Example 9] | – | – | – | – | 40% | 60% | 80% | 90% | 75% | 90% | 100% | – | – | – | – | – | – |
| COC(=O)CCN(CCOC1CCCCC1)SN(C)C(=O)Oc1cccc2c1OC(C)(C)C2 [Example 10] | – | – | – | – | 35% | 50% | 70% | 85% | 65% | 85% | 100% | – | – | – | – | – | – |
| CC(C)OCCCN(CCC#N)SN(C)C(=O)Oc1cccc2c1OC(C)(C)C2 [Example 11] | – | – | – | – | 35% | 50% | 70% | 80% | 70% | 90% | 100% | – | – | – | – | – | – |
| CCCCOC(=O)CCN(CCOC)SN(C)C(=O)Oc1cccc2c1OC(C)(C)C2 [Example 12] | – | – | – | – | 40% | 55% | 75% | 85% | 70% | 85% | 100% | – | – | – | – | – | – |
| COC(=O)CCN(CCOCc1ccccc1)SN(C)C(=O)Oc1cccc2c1OC(C)(C)C2 [Example 13] | – | – | – | – | 40% | 55% | 70% | 85% | 65% | 85% | 100% | – | – | – | – | – | – |
| COC(=O)CCN(CCCCOc1ccccc1)SN(C)C(=O)Oc1cccc2c1OC(C)(C)C2 [Example 14] | – | – | – | – | 35% | 50% | 70% | 80% | 65% | 85% | 100% | – | – | – | – | – | – |
| COC(=O)CCN(CCCCCOc1ccccc1)SN(C)C(=O)Oc1cccc2c1OC(C)(C)C2 [Example 15] | – | – | – | – | 40% | 50% | 70% | 80% | 65% | 80% | 100% | – | – | – | – | – | – |
| COCCCN(CCC(=O)OC)SN(C)C(=O)ON=C(C)SC [Example 16] | – | – | 100% | 100% | – | – | – | – | – | – | – | – | 100% | 100% | 90% | 100% | 100% |
| COCCN(CCC#N)SN(C)C(=O)ON=C(C)SC [Example 17] | – | – | 85% | 95% | – | – | – | – | – | – | – | – | 100% | 100% | 80% | 95% | 100% |
| COCCN(CC#N)SN(C)C(=O)ON=C(C)SC [Example 18] | – | – | 100% | 100% | – | – | – | – | – | – | – | – | 100% | 100% | 80% | 95% | 100% |
| CCOC(=O)CN(CCOC)SN(C)C(=O)ON=C(C)SC [Example 19] | – | – | 90% | 100% | – | – | – | – | – | – | – | – | 100% | 100% | 90% | 100% | 100% |
| COC(=O)CCN(CCCOc1ccccc1)SN(C)C(=O)ON=C(C)SC [Example 20] | – | – | 90% | 95% | – | – | – | – | – | – | – | – | 100% | 100% | 80% | 90% | 100% |
| COC(=O)CCN(CCOC(C)C)SN(C)C(=O)ON=C(C)SC [Example 21] | – | – | 100% | 100% | – | – | – | – | – | – | – | – | 100% | 100% | 85% | 100% | 100% |
| COC(=O)CCN(CCOC1CCCCC1)SN(C)C(=O)ON=C(C)SC [Example 22] | – | – | 90% | 100% | – | – | – | – | – | – | – | – | 100% | 100% | 80% | 95% | 100% |
| CSC(C)=NOC(=O)N(C)SN(CCC#N)CCCOC(C)C [Example 23] | – | – | 85% | 95% | – | – | – | – | – | – | – | – | 100% | 100% | 80% | 95% | 100% |
| CCCCOC(=O)CCN(CCOC)SN(C)C(=O)ON=C(C)SC [Example 24] | – | – | 80% | 95% | – | – | – | – | – | – | – | – | 100% | 100% | 85% | 95% | 100% |
| COC(=O)CCN(CCCCOc1ccccc1)SN(C)C(=O)ON=C(C)SC [Example 25] | – | – | 80% | 90% | – | – | – | – | – | – | – | – | 100% | 100% | 85% | 90% | 100% |
